In patent US20260217701A1, “SELECTIVE BET INHIBITORS AND USES THEREOF” (Tay Therapeutics Limited, priority 2022, published 2026):

Legend:
[1] = biological target: T1, BRD4 BD1 (Homo sapiens, UniProt O60885); test: NanoBRET bromodomain assay, NanoLuc-BRD4-BD1 in HEK293 cells; assay type: binding
T1 construct: HEK293 cells were transfected using NanoLuc-BRD4-BD1 or NanoLuc-BRD4-BD2 fusion vectors
Protocol: Exemplary compounds of the disclosure are active against BRD4 BD2 and selective over BRD4 BD1. BRD4 is a representative example of the BET family, as the binding sites of all BET family members are structurally similar. […] IC50s and fold selectivity's are determined as described below and are represented in Table 1.
(§1) Plates were then incubated at 37° C.+5% CO2 incubator for 2 hours.
(§2) Fold Selectivity Calculated (IC50 BD1/IC50 BD2).

[2] = biological target: T2, BRD4 BD2 (Homo sapiens, UniProt O60885); test: NanoBRET bromodomain assay, NanoLuc-BRD4-BD2 in HEK293 cells; assay type: binding; settings: for Fold Selectivity BRD4 BD1/BD2: IC50 BD1/IC50 BD2, qualitative if an IC50 is at the upper limit
T2 construct: HEK293 cells were transfected using NanoLuc-BRD4-BD1 or NanoLuc-BRD4-BD2 fusion vectors
Protocol: as §1, §2

IC50 [1] [nM] | IC50 [2] [nM] | Fold Selectivity BRD4 BD1/BD2 [2] | Compound
> 1000 | < 10 | xxxx (Fold >1000) | Cn1cc(-c2cc(=O)n(C3CC3)cc2-c2ccccc2)c2cc(-c3ccc(F)cc3F)[nH]c2c1=O [Example 49, 4-(1-cyclopropyl-2-oxo-5-phenyl-1,2-dihydropyridin-4-yl)-2-(2,4-difluorophenyl)-6-methyl-1,6-dihydro-7H-pyrrolo[2,3-c]pyridin-7-one]
> 1000 | < 10 | xxxx (Fold >1000) | COc1cccc(-c2cc3c(-c4cc(=O)n(C5CC5)cc4-c4ccccc4)cn(C)c(=O)c3[nH]2)c1F [Example 50, 4-(1-cyclopropyl-2-oxo-5-phenyl-1,2-dihydropyridin-4-yl)-2-(2-fluoro-3-methoxyphenyl)-6-methyl-1,6-dihydro-7H-pyrrolo[2,3-c]pyridin-7-one]
> 1000 | < 10 | xxxx (Fold >1000) | Cn1cc(-c2cccc(C(C)(C)O)c2)c(-c2cn(C)c(=O)c3[nH]c(-c4ccc(F)cc4F)cc23)cc1=O [Example 51, 2-(2,4-difluorophenyl)-4-(5-(3-(2-hydroxypropan-2-yl)phenyl)-1-methyl-2-oxo-1,2-dihydropyridin-4-yl)-6-methyl-1,6-dihydro-7H-pyrrolo[2,3-c]pyridin-7-one]
> 1000 | < 10 | xxxx (Fold >1000) | COCCOc1cccc(-c2cn(C)c(=O)cc2-c2cn(C)c(=O)c3[nH]c(-c4ccc(F)cc4F)cc23)c1 [Example 53, 2-(2,4-difluorophenyl)-4-(5-(3-(2-methoxyethoxy)phenyl)-1-methyl-2-oxo-1,2-dihydropyridin-4-yl)-6-methyl-1,6-dihydro-7H-pyrrolo[2,3-c]pyridin-7-one]
> 1000 | < 10 | xxxx (Fold >1000) | COc1cccc(-c2cc3c(-c4cc(=O)n(C)cc4Oc4c(C)cccc4C)cn(C)c(=O)c3[nH]2)c1F [Example 56, 4-(5-(2,6-dimethylphenoxy)-1-methyl-2-oxo-1,2-dihydropyridin-4-yl)-2-(2-fluoro-3-methoxyphenyl)-6-methyl-1,6-dihydro-7H-pyrrolo[2,3-c]pyridin-7-one]

The next lines start with the compound.

Compound | IC50 [1] [nM] | IC50 [2] [nM] | Fold Selectivity BRD4 BD1/BD2 [2]
COCCn1cc(-c2ccccc2)c(-c2cn(C)c(=O)c3[nH]c(-c4cnn(C(F)(F)F)c4)cc23)cc1=O [Example 52, 4-(1-(2-methoxyethyl)-2-oxo-5-phenyl-1,2-dihydropyridin-4-yl)-6-methyl-2-(1-(trifluoromethyl)-1H-pyrazol-4-yl)-1,6-dihydro-7H-pyrrolo[2,3-c]pyridin-7-one] | > 1000 | < 10 | xxxx (Fold >1000)
Cc1cccc(C)c1Oc1cn(C)c(=O)cc1-c1cn(C)c(=O)c2[nH]c(-c3cnc(C(C)C)s3)cc12 [Example 54, 4-(5-(2,6-dimethylphenoxy)-1-methyl-2-oxo-1,2-dihydropyridin-4-yl)-2-(2-isopropylthiazol-5-yl)-6-methyl-1,6-dihydro-7H-pyrrolo[2,3-c]pyridin-7-one] | > 1000 | < 10 | xxxx (Fold >1000)
Cc1cccc(C)c1Oc1cn(C)c(=O)cc1-c1cn(C)c(=O)c2[nH]c(-c3cc(F)cc(F)c3F)cc12 [Example 55, 4-(5-(2,6-dimethylphenoxy)-1-methyl-2-oxo-1,2-dihydropyridin-4-yl)-6-methyl-2-(2,3,5-trifluorophenyl)-1,6-dihydro-7H-pyrrolo[2,3-c]pyridin-7-one] | > 1000 | < 10 | xxxx (Fold >1000)
Cc1cccc(C)c1Oc1cn(C)c(=O)cc1-c1cn(C)c(=O)c2[nH]c(-c3cccc(CO)c3F)cc12 [Example 57, 4-(5-(2,6-dimethylphenoxy)-1-methyl-2-oxo-1,2-dihydropyridin-4-yl)-2-(2-fluoro-3-(hydroxymethyl)phenyl)-6-methyl-1,6-dihydro-7H-pyrrolo[2,3-c]pyridin-7-one] | > 1000 | < 10 | xxxx (Fold >1000)
